Assay results taken from patent US11938129B2, “Methods and compositions for the treatment of vascular disease” (THE GENERAL HOSPITAL CORPORATION, priority 2018, dated 2024).
{FAM} = FAM fluorophore (/36-FAM/)

Key:
a-SMA and SM22a = assay: immunofluorescence of contractile proteins in ligated carotids; type: in vivo, mouse; conditions: ligated carotid, in contrast to carotid VSMCs in wild type animals
Procedure: All mice used in this study were cared for under strict compliance with the Partners Institutional Animal Care and Use Committee (IACUC), regulated by the United States Public Health Service (USPHS). Carotid ligations were performed in 10 week old mice. Briefly, animals were anesthetized using intraperitoneal ketamine/xylazine (80 and 12 mg/kg, respectively) followed by a small incision in the neck to expose the carotid artery. Then the left carotid was ligated at the carotid bifurcation level using a 8-0 silk suture. At 21 days mice were sacrificed and carotids were collected for histological analysis. Approximately 98% of wild type mice developed stenotic lesions. Mice that developed thrombosis of the ligated carotid were excluded from the study (−1¬2%). Malatl knockout mice were kindly provided by Dr. David Spector (Cold Spring Harbor, N.Y.). Hdac9 flox/flox/Talgn-cre mice were generated as previously reported (10). Ezh2 fl/fl/ (STOCK Ezh2tm2Sho/J) and Myh11-cre-GFP (B6.Cg-Tg(Myh11-cre,-EGFP)2Mik/J) were crossed to generate smooth muscle cell-Ezh2 deficient mice. All above mice and wild-type mice (C57BL/6J) were purchased from Jackson laboratory. For tissue analysis, animals were euthanized through inhalational isoflurane (Sigma, St, Louis, Mo.) prior to tissue collection. All carotid ligation (left carotid) procedures were performed at 10 weeks of age. All experiments were performed on male and female animals at a 1:1 ratio.
Left and right carotids were cryosectioned using OCT standard protocol and sectioning. The right carotid artery was unligated and served as an internal control. Neoinitima analysis was performed from hematoxylin and eosin (H & E) stained horizontal cross-sections embedded in Optimal Cutting Temperature compound (OCT). Briefly, the distal 0.2 mm of carotid from the ligation suture site were discarded followed by generation of 20 slides (10 pM). Slides 1, 5, 10, and 15 were H&E stained for quantification of neointima. For quantification of the neointima, internal and external elastic lamina perimeters and medial thickness from 4 quadrants were measured and averaged using Image J software from the National Institutes of Health (NIH). Slides 2-4, 6-9, and 11-14 were used for immunofluorescence staining.
Cohorts of 10-week-old wild-type mice were treated with oral administration in drinking water of GSK343 24 hrs before left carotid ligation and following treatment for 3 weeks. GSK343 inhibitor (25 mg) was dissolved in 1 mL of DMSO to obtain a stock solution of 46 mM. Then, 250 ml of drinking water was supplemented with 250 pl of GSK343 stock solution. Control group for was given with equal volumes of sterile water. Bottles containing GSK343 were replaced with fresh water supplied with drug every 3 days. […]

[1] = delivery of fluorescently labeled GapmeR to the vasculature; type: in vivo, mouse; conditions: ligated carotid of GapmeR treated mice, not in vehicle and GSK343 treated mice

3′-FAM-GapmeR-Malatl: fluorescently labeled GapmeR against MALAT1, GTCACAATGCATTCTA/36-FAM/ (SEQ ID NO: 2) (3' {FAM}, sugars by position and backbone not given here; LNA gapmer)
expression of α-SMA in carotid VSMCs (a-SMA and SM22a): robust expression
detection of 3′-FAM labeled GapmeR in ligated carotid [1]: Detection
